We go through nine compounds from patent US4125538A, “Substituted 5-phenyl-2,3,4,5-tetrahydro-1,4-benzoxazepines” (Bristol-Myers Company, priority 1977, dated 1978).

Where a name gives a salt, the structure may show the parent alone. Read-outs that look alike come from different tables or passages of the source. Where only a bound is given, the exact number is not on record here.

Experiment [1] has as its system phenylquinone-induced writhing in the mouse. Nature of the experiment: Phenylquinone-induced writhing test in the mouse. Type of experiment: in vivo. As to conditions: for ED50: Mus musculus; for analgesic activity (in words): mouse, in vivo. As for the experimental part:
Compounds of formula I, and homologous and analogous compounds, were tested for analgesic activity by means of the phenylquinone-induced writhing test in the mouse, using the known analgesic, nefopam (5 methyl-1-phenyl-3,4,5,6-tetrahydro-1H-2,5-benzoxazocine), as a comparison standard. The method used was essentially that described by Siegmund et al. [Proc. Soc. exp. Biol. N. Y. 95, 729 (1957)]. Compounds were administered either subcutaneously (15 min) or orally (25 min) prior to the intraperitoneal injection of phenylquinone (2 mg/kg). […] The dose which produced a 50 percent reduction in the number of writhes, as compared to the control group, was called the ED50.
BL-R845 and nefopam were compared in additional phenylquinone-induced writhing tests in the mouse and rat, by various routes of administration.

Experiment [2] has as its system cough response in male guinea-pigs. Nature of the experiment: Antitussive activity in male guinea-pigs (electrically stimulated cough). Type of experiment: in vivo, guinea-pig. Conditions: for inhibition in vivo at 10 mg/kg: Cavia porcellus, sc, 10 mg./kg. subcutaneously, cough tested at 30, 60 and 120 min, values of 30 or less not significantly different from saline controls, considered inactive or insufficiently active; for antitussive activity (in words): guinea pig, in vivo. As for the experimental part:
Compounds of formula I, and homologous and analogous compounds, were also tested for antitussive activity in male guinea-pigs, using a modification of the procedure of Friebel and Hahn [Med. Pharmacol. exp., 14, 78 (1966)]. Under general anesthesia, two stainless steel wires (0.2 mm diameter), stripped of their enamel insulation at the points of contact with the trachea, were wrapped around the trachea about 8 mm apart and then threaded under the skin and out through the back of the neck, one on each side. After 24 hrs, test animals were placed in a clear plastic cage and the cough threshold was determined by means of electrical stimulation. The following stimulation parameters were used: delay -- 0.01 msec, duration -- 0.6 msec and frequency -- 300 Hz. The minimal voltage (range 60-120 V) necessary to elicit a cough in less than 6 sec was determined. Each guinea-pig was stimulated 5 times at 30 sec intervals employing the predrug stimulation parameters at 30, 60 and 120 min following drug administration. A test animal was considered to be protected if more than 6 sec were required to produce a cough. Compounds were administered at a dosage of 10 mg./kg. subcutaneously. The percent inhibition of cough response was calculated as follows: % Inhibition = (A-B)/(A) × 100 a = number of coughs requiring <6 sec. stimulation after saline. B = number of coughs requiring <6 sec. stimulation after drug.

In experiment [3] the test system is analgesic activity, naloxone antagonism. Briefly: Block of analgesic activity by naloxone. In kind it is in vivo. Conditions: naloxone as antagonist. An excerpt:
(§1) The analgesic profile for BL-[…] and nefopam resembles that of the narcotic antagonist analgesics rather than the narcotic drugs. […] Nevertheless,both BL-[…] and nefopam differ from the antagonist action of naloxone. […] These findings indicate that BL-[…] and nefopam act on different receptor sites from those affected by the antagonist analgesics.

In the next experiment the test system is mouse hot plate. Nature of the experiment: Mouse hot plate (thermal analgesic test). As to conditions: conventional thermal analgesic test. Type of experiment: in vivo.
Text: as §1

The next experiment concerns cough in dogs. Briefly: Antitussive activity in the dog (method of Stefko and Benson). Conditions: for ED50: Canis lupus familiaris.
For a further experiment, the system named is rodent writhing. Briefly: Rodent writhing tests. Conditions: in vivo. The text has this: BL-[…] and nefopam were compared in additional phenylquinone-induced writhing tests in the mouse and rat, by various routes of administration. The analgesic profile for BL-[…] and nefopam resembles that of the narcotic antagonist analgesics rather than the narcotic drugs. […] Nevertheless,both BL-[…] and nefopam differ from the antagonist action of naloxone. […] These findings indicate that BL-[…] and nefopam act on different receptor sites from those affected by the antagonist analgesics.

The test system of the next experiment is rat tail flick. Nature of the experiment: Rat tail flick (thermal analgesic test). In kind it is in vivo. Conditions: conventional thermal analgesic test.
Text: as §1

The test system of experiment [4] is phenylquinone-induced writhing in the rat. Briefly: Phenylquinone-induced writhing test in the rat. In kind it is in vivo. As to conditions: Table 4, rats. An excerpt: BL-[…] and nefopam were compared in additional phenylquinone-induced writhing tests in the mouse and rat, by various routes of administration.
A general note: Writhing tests count abdominal constrictions after an irritant is injected.

The mark [5] stands for this setting: sc, Table 1, s.c. 15 min before phenylquinone 2 mg/kg i.p., 50 percent reduction in number of writhes vs control, read-out: ED50.
The mark [6] stands for this setting: central, Table 4, mice, intraventricular, read-out: Phenylquinone-induced Writhing ED50, mice, intraventricular.
Where [7] appears, read: sc, Table 4, mice, subcutaneous, read-out: Phenylquinone-induced Writhing ED50, mice, subcutaneous.
[8] abbreviates: Table 4, mice, oral, read-out: Phenylquinone-induced Writhing ED50, mice, oral.
[9] abbreviates: po, read-out: ED50, antitussive, oral.
The mark [10] stands for this setting: sc, read-out: ED50, antitussive, s. c.
Setting [11] is: oral, read-out: Phenylquinone-induced Writhing ED50, rats, oral.
The mark [12] stands for this setting: sc, subcutaneous, read-out: Phenylquinone-induced Writhing ED50, rats, subcutaneous.

For the compound `CNCCN1CCOc2ccc(Cl)cc2C1c1ccccc1` (stereo not shown) [BL-5366, 7-Chloro-4-(2-methylaminoethyl)-5-phenyl-2,3,4,5-tetrahydro-1,4,-benzoxazepine dihydrochloride], the 50% effective dose (ED50) in experiment [1] (setting [5]) turned out to be 13 mg/kg. In addition, the “analgesic activity (in words)” value in experiment [1] was “little or no such activity”. Moreover, in experiment [2], the inhibition in vivo at 10 mg/kg was found to be 0% and the “antitussive activity (in words)” value is “little or no such activity”.

With `Cl.Cl.Clc1ccc2c(c1)C(c1ccccc1)N(CCN1CCCC1)CCO2` (stereo not shown) [BL-5397, 7-Chloro-4-(2-pyrrolidinoethyl)-5-phenyl-2,3,4,5-tetrahydro-1,4-benzoxazepine dihydrochloride], in experiment [1] (setting [5]), the ED50 is 2.5 mg/kg. Moreover, the “analgesic activity (in words)” value in experiment [1] is on record as “valuable analgesic activity”. In experiment [2], this compound gave an inhibition in vivo at 10 mg/kg of 0%.

Consider `Cl.Cl.Clc1ccc2c(c1)C(c1ccccc1)N(CCN1CCCCC1)CCO2` (stereo not shown) [BL-5409, 7-Chloro-4-(2-piperidinoethyl)-5-phenyl-2,3,4,5-tetrahydro-1,4-benzoxazepine dihydrochloride], for which the median effective dose (ED50) in experiment [1] (setting [5]) was determined as 9 mg/kg. Testing at 10 mg/kg in experiment [2] gave an inhibition in vivo of 0%.

Take `CN(C)CCN1CCOc2ccc(Cl)cc2C1c1ccccc1.Cl.Cl` (stereo not shown) [BL-R845, 7-Chloro-4-(2-dimethylaminoethyl)-5-phenyl-2,3,4,5-tetrahydro-1,4-benzoxazepine dihydrochloride]: the “effect of naloxone on analgesic activity” value in experiment [3] is listed as “does not block the analgesic activity”. Besides, the ED50 in experiment [1] (setting [6]) is 0.31 mg/kg; in experiment [1] (setting [7]) it was 1.3 mg/kg; in experiment [1] (setting [8]), 11.6 mg/kg; in the experiment with cough in dogs (setting [9]), 2 to 5 mg/kg; with cough in dogs (setting [10]), 0.2 to 0.5 mg/kg; in experiment [4] (setting [11]) it was 12.8 mg/kg. For the same compound, in experiment [4] (setting [12]), the ED50 came to 1 mg/kg. Also, the “analgesic activity (in words)” value in experiment [1] is “effective analgesic”. This compound also registered an inhibition in vivo at 10 mg/kg in experiment [2] of 48%. In experiment [2], the “antitussive activity (in words)” value is “effective analgesic and antitussive agent”. In the experiment with mouse hot plate, the “analgesic activity, mouse hot plate” value is reported as “relative lack of analgesic activity”. The “antitussive activity compared with nefopam or codeine” value with cough in dogs (dog, both routes of administration) is given as “more active than nefopam or codeine”. For the same compound, the “activity in the rodent writhing tests” value in the experiment on rodent writhing is “good activity”. Further, the “analgesic activity, rat tail flick” value in the experiment on rat tail flick is listed as “relative lack of analgesic activity”.

For `CN1CCN(CCN2CCOc3ccc(Cl)cc3C2c2ccccc2)CC1.Cl.Cl.Cl` (stereo not shown) [BL-5451, 7-Chloro-4-[2-(4-methylpiperazino)ethyl]-5-phenyl-2,3,4,5-tetrahydro-1,4-benzoxazepine trihydrochloride], in experiment [1] (setting [5]), the ED50 turned out to be 19 mg/kg. For the same compound, the inhibition in vivo at 10 mg/kg in experiment [2] was determined as 0%.

For the compound `CN1CCOC(c2ccccc2)c2ccccc2C1` (stereo not shown) [nefopam, 5 methyl-1-phenyl-3,4,5,6-tetrahydro-1H-2,5-benzoxazocine, reference compound], the “effect of naloxone on analgesic activity” value in experiment [3] was “does not block the analgesic activity”. The ED50 was 0.14 mg/kg in experiment [1] (setting [6]); 1.1 mg/kg in experiment [1] (setting [7]); 22 mg/kg in experiment [1] (setting [8]); > 20 mg/kg in the experiment with cough in dogs (setting [9]); 2 to 5 mg/kg with cough in dogs (setting [10]); 9.6 mg/kg in experiment [4] (setting [11]). For the same compound, the ED50 in experiment [4] (setting [12]) was 1 mg/kg. Moreover, the inhibition in vivo at 10 mg/kg in experiment [2] turned out to be 0%. The “analgesic activity, mouse hot plate” value with mouse hot plate is “relative lack of analgesic activity”. The “activity in the rodent writhing tests” value with rodent writhing is listed as “good activity”. Moreover, the “analgesic activity, rat tail flick” value in the experiment on rat tail flick is “relative lack of analgesic activity”.

In the case of `COc1ccc2c3c1O[C@H]1[C@@H](O)C=C[C@H]4[C@@H](C2)N(C)CC[C@@]341` [codeine], the figures for the ED50 in the experiment with cough in dogs (setting [9]) and in the experiment on cough in dogs (setting [10]) were 7.8 mg/kg and 1.5 mg/kg, respectively.

For the compound `Cl.Cl.Clc1ccc2c(c1)C(c1ccccc1)N(CCN1CCOCC1)CCO2` (stereo not shown) [BL-5405, 7-Chloro-4-(2-morpholinoethyl)-5-phenyl-2,3,4,5-tetrahydro-1,4-benzoxazepine dihydrochloride], the ED50 in experiment [1] (setting [5]) is > 40 mg/kg. Also, the inhibition in vivo at 10 mg/kg in experiment [2] was found to be 30%.

Turning to `CCN(CC)CCN1CCOc2ccc(Cl)cc2C1c1ccccc1.Cl.Cl` (stereo not shown) [BL-5372, 7-Chloro-4-(2-diethylaminoethyl)-5-phenyl-2,3,4,5-tetrahydro-1,4-benzoxazepine dihydrochloride], the ED50 in experiment [1] (setting [5]) was determined as 10 mg/kg. Also, the “analgesic activity (in words)” value in experiment [1] is “little or no such activity”. In addition, in experiment [2], 10 mg/kg produced 0% inhibition in vivo and the “antitussive activity (in words)” value is “little or no such activity”.

Usually ED50 stands for the dose at which the effect has come halfway, by size or by number of responders. The term inhibition in vivo denotes the percentage by which the read-out fell short of the control. Higher therefore signals strong suppression.
